Calls of active or inactive are those of the source. The rule behind the calls is not given here.
The compounds below were run on Mus musculus (assay: Antidepressant activity in Mus musculus Kunming (mouse) assessed as reduction in immobility time at 10 to 40 mg/kg, ip administered 30 min before test by forced swim test). Conditions: not given.
Format: functional, organism-based
`O=C(/C=C/c1ccccc1Br)c1c(O)cc(O)cc1O` was tested, and the Activity was “Active”.

Each compound was assayed on Mus musculus (assay: Antidepressant activity in Mus musculus (mouse) assessed as reduction in immobility time at 10 to 40 mg/kg, ip administered 30 min before test by tail suspension test). Conditions: not given.
Format: functional, organism-based
For `O=C(/C=C/c1ccccc1Br)c1c(O)cc(O)cc1O`, the Activity was “Active”.

Each compound was assayed on Mus musculus (assay: Antidepressant activity in Mus musculus Kunming (mouse) assessed as reduction in immobility time at 10 mg/kg, ip administered 30 min before test by forced swim test relative to control). Conditions: route intraperitoneal.
Format: functional
Set-up: scale not given: the % may be the effect or the level left
`O=C(/C=C/c1ccc(O)cc1)c1c(O)cc(O)cc1O` [4,2',4',6'-TETRAHYDROXYCHALCONE] showed an Activity of 28.51%. For `COc1ccc(/C=C/C(=O)c2c(O)cc(O)cc2O)cc1OC`, the Activity was 17.57%. `O=C(/C=C/c1ccccc1F)c1c(O)cc(O)cc1O` gave an Activity of 33.55%. Compound `O=C(/C=C/c1cccc(Br)c1)c1c(O)cc(O)cc1O` has an Activity of 26.64%. Compound `O=C(/C=C/c1ccc(F)cc1)c1c(O)cc(O)cc1O` [4-FLUORO-2',4',6'-TRIHYDROXYCHALCONE] has an Activity of 4.39%. Compound `O=C(/C=C/c1ccc(Br)cc1)c1c(O)cc(O)cc1O` [4-BROMO-2',4',6'-TRIHYDROXYCHALCONE] has an Activity of 19.29%. `COc1ccc(/C=C/C(=O)c2c(O)cc(O)cc2O)cc1` [4-METHOXYL-2',4',6'-TRIHYDROXYCHALCONE] gave an Activity of 11.09%. With `O=C(/C=C/c1cccc(Cl)c1)c1c(O)cc(O)cc1O` the Activity was 27.57%. `O=C(/C=C/c1ccc(Cl)cc1Cl)c1c(O)cc(O)cc1O` showed an Activity of 27.43%. Compound `O=C(/C=C/c1ccc(O)c(O)c1)c1c(O)cc(O)cc1O` [3,4,2',4',6'-PENTAHYDROXYCHALCONE] has an Activity of 29.09%. `O=C(/C=C/c1cccc(F)c1)c1c(O)cc(O)cc1O` showed an Activity of 17.21%. In the case of `CNCCC(Oc1ccc(C(F)(F)F)cc1)c1ccccc1` (stereo not given) [FLUOXETINE], the Activity is reported as 58.68%. `Cc1ccc(/C=C/C(=O)c2c(O)cc(O)cc2O)cc1` gave an Activity of 17.35%. With `O=C(/C=C/c1ccccc1Cl)c1c(O)cc(O)cc1O` the Activity was 18.72%. `COc1cc(/C=C/C(=O)c2c(O)cc(O)cc2O)ccc1O` gave an Activity of 22.89%. Work on `O=C(/C=C/c1ccccc1Br)c1c(O)cc(O)cc1O` yielded an Activity of 50.04%. Work on `Cc1ccc(/C=C/C(=O)c2c(O)cc(O)cc2O)cc1C` yielded an Activity of 13.31%. `O=C(/C=C/c1ccc(Cl)cc1)c1c(O)cc(O)cc1O` [4-CHLORO-2',4',6'-TRIHYDROXYCHALCONE] showed an Activity of 27.07%.

From ChEMBL document CHEMBL3046575, “Synthesis and studies on antidepressant activity of 2,4,6-trihydroxychalcone derivatives” (2012)
